According to ChEMBL document CHEMBL1141631, “Novel ketooxazole based inhibitors of fatty acid amide hydrolase (FAAH)” (Bioorg Med Chem Lett, 2008):
pIC50: −log10 of the molar value. ≈ marks a conversion by molar mass, not a printed value. Calls of active or inactive are those of the source. The rule behind the calls is not given here.

Tests used:
[1] = Aqueous solubility in water; assay type: physicochemical
[2] = target: T1, Fatty-acid amide hydrolase 1 (Homo sapiens, UniProt O00519); assay: Inhibition of human FAAH
T1 sequence (O00519 whole entry): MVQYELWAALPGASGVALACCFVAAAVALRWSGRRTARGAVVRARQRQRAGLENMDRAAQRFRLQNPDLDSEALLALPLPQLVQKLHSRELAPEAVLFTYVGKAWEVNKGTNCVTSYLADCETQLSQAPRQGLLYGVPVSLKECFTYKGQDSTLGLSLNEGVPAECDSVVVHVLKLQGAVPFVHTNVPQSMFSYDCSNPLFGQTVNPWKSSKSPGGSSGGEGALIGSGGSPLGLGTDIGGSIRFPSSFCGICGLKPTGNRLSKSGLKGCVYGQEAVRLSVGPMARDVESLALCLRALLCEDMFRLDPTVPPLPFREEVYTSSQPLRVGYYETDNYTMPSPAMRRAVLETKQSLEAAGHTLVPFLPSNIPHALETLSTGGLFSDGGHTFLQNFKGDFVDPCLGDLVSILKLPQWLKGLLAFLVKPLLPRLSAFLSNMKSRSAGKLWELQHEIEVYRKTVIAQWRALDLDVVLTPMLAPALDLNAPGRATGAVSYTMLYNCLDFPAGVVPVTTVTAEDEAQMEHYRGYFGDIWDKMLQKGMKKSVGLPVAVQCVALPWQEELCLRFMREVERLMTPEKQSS

Rattus norvegicus [3] = organism: Rattus norvegicus; assay: Reversal of tactile allodynia in spinal nerve ligated rat model; assay type: functional
Rattus norvegicus [4] = organism: Rattus norvegicus; assay: Toxicity in spinal nerve ligated rat model assessed as motor impairment by rotarod test; assay type: organism-based; conditions: in vivo
Rattus norvegicus [5] = assay: Reversal of tactile allodynia in spinal nerve ligated rat model at 4 mg/kg, iv followed by infusion of 6 mg/kg/hr after 6 hrs; assay type: functional, organism-based
[6] = Plasma concentration in spinal nerve ligated rat model at 4 mg/kg, iv followed by infusion of 6 mg/kg/hr after 6 hrs; assay type: ADME, organism-based

| pIC50 [2] | SMILES | further results |
| --- | --- | --- |
| 8.44 | CC(C)c1ccc(CN2CCC(CCCC(=O)c3ncco3)CC2)cc1 | solubility [1]: > 400 µg/mL; ED50 (Rattus norvegicus [3]): 7.3 mg/kg; Activity (Rattus norvegicus [4]): Non-toxic; Activity (Rattus norvegicus [5]): Active; concentration at 6 h [6]: 1200 nM |
| 8.70 | CC(C)(C)OC(=O)N1CCC(CCCC(=O)c2ncco2)CC1 | – |
| 6.89 | COc1ccc(CN2CCC(CCCC(=O)c3ncco3)CC2)cc1 | – |
| 6.85 | CC(C)S(=O)(=O)N1CCC(CCCC(=O)c2ncco2)CC1 | – |
| 7.47 | COc1cccc(CN2CCC(CCCC(=O)c3ncco3)CC2)c1 | – |
| 7.11 | O=C(CCCC1CCN(C(=O)c2ccccc2)CC1)c1ncco1 | – |
| 7.66 | O=C(CCCC1CCN(C(=O)CCc2ccccc2)CC1)c1ncco1 | – |
| 8.52 | O=C(CCCC1CCN(C(=O)CCC2CCCCC2)CC1)c1ncco1 | – |
| 8.60 | O=C(CCCC1CCN(S(=O)(=O)c2ccccc2)CC1)c1ncco1 | – |
| 5.24 | O=C(CCCC1CCNCC1)c1ncco1 | – |
| 7.37 | O=C(CCCCCCc1ccccc1)c1ncco1 | – |
| 8.40 | O=C(CCCC1CCN(C(=O)OCc2ccccc2)CC1)c1ncco1 | – |
| – | O=C(CCCCCCc1ccccc1)c1ncc(-c2ccccn2)o1 | solubility [1]: 16 µg/mL (≈ 47.8 µM) |
